Laboratory results: patent US20230312471A1 (priority 2020, published 2023)
Like-named read-outs stand apart in the source and are kept apart here.

Columns and labels:
Assay in all cases: biochemical
[1] = molecular target: 3CL^pro (Severe acute respiratory syndrome coronavirus 2, UniProt P0DTD1); assay type: binding, SARS-CoV-2
[2] = molecular target: T1, PL^pro (Severe acute respiratory syndrome coronavirus 2, UniProt P0DTD1); assay type: binding, SARS-CoV-2
[3] = molecular target: T1, PL^pro; assay type: biochemical, SARS-CoV-2
[4] = read-out: IC50, inhibition of labelling of 3CL^pro by compound of formula (13)

Question: `O=C(/C=C/c1ccc(O)c2c1[C@H](C(=O)O[C@H](Cc1ccc(O)c(O)c1)C(=O)O)[C@@H](c1ccc(O)c(O)c1)O2)O[C@H](Cc1ccc(O)c(O)c1)C(=O)O` [Compound M26, salvianolic acid B] was tested. Which IC50 [1, 4] did it give?
Answer: Its IC50 is 12 µM.

Question: Which results are given for `S=C=NCCc1ccccc1` [Compound X05, Phenethyl isothiocyanate]?
Answer: IC50 [2]: 81 µM; Inhibition of PL^pro labelling (in words) [2]: incomplete inhibition; IC50 [3]: 44 µM; Inhibition of enzyme activity of PL^pro (in words) [3]: inhibited enzyme activity; IC50 [1]: 43 µM; Inhibition of 3CL^pro labelling (in words) [1]: incomplete inhibition

Question: For `O=C(/C=C/c1ccc(O)c2c1[C@H](C(=O)O)[C@@H](c1ccc(O)c(O)c1)O2)O[C@H](Cc1ccc(O)c(O)c1)C(=O)O` [lithospermic acid], which IC50 [1] is on record?
Answer: The IC50 was 32 µM.

Question: With `O=C(/C=C/c1ccc(O)c2oc(-c3ccc(O)c(O)c3)cc12)O[C@H](Cc1ccc(O)c(O)c1)C(=O)O` [salvianolic acid C] as the compound, how does the IC50 [1, 4] read?
Answer: Its IC50 is 91 µM.

Question: With `O=C(/C=C/c1ccc(O)c(O)c1)O[C@H](Cc1ccc(O)c(O)c1)C(=O)O` [rosmarinic acid] as the compound, how does the IC50 [1] read?
Answer: Its IC50 is 10 µM.

Question: `COc1cc(/C=C/C(=O)CC(=O)/C=C/c2ccc(O)c(OC)c2)ccc1O` [Compound M03, curcumin] was tested. Which “Inhibition of PL^pro labelling (in words)” value [2] did it give?
Answer: The value was “almost completely inhibited”.

Question: What about the “Inhibition of enzyme activity of PL^pro (in words)” value [3] of the same compound?
Answer: The value was “inhibited enzyme activity”.

Question: How did the IC50 [1, 4] turn out when `O=C(/C=C/c1ccc(O)c(O)c1/C=C/c1ccc(O)c(O)c1)O[C@H](Cc1ccc(O)c(O)c1)C(=O)O` [salvianolic acid A] was run?
Answer: Its IC50 is 4.8 µM.
